Entries after “also recorded” stand apart in the source; their conditions may differ.
How the values were obtained:
mutant CLN3p = test: Protein-lipid overlay assay, mutant CLN3p (JNCL cell lysate); format: binding, human; conditions: lysate of JNCL cells, anti-CLN3 antibody
Protocol: Protein-lipid overlay assay. Membrane arrays (SPHINGOSTRIPS (Echelon Research Laboratories, Salt Lake City, Utah), or lipids were spotted on nitrocellulose membranes and dried for at least one hour. Membranes were blocked with 3% (wt/vol) Fatty Acid Free or FFA-BSA (Sigma-Aldrich, St. Louis, Mo.) in Tris-Buffered Saline Tween-20 (TBST) [150 mM NaCl/10 mM Tris.HCl (pH 8.0), and 0.1% (vol/vol) Tween-20] for 1 h at RT. Blocked membranes were incubated for 8 h at 4° C. with 2 mg/ml of total cell lysate.
Fibroblasts overexpressing CLN3p (AC1 cells) and JNCL fibroblasts were used for the GalCer-CLN3 binding assay. The membranes were then washed five times for 5 min each with TBST. After washing, membranes were incubated with anti-CLN3, CLN1, CLN2, CLN6 or CLN8-antibodies overnight at 1:1000 dilution, followed by additional washing and incubation with horseradish peroxidase-conjugated anti-rabbit IgG goat antibody for 1 h at RT. After a final washing, enhanced chemiluminescence was used to detect binding of NCL proteins to sphingolipids. Intensity values were computed with an ImageJ software program.
Binding of CLN3 to GalCer and sulfatide. Membranes impregnated with sphingolipids were overlaid with protein cell lysates from CLN3-overexpressing and JNCL cells. Anti-CLN3 antibody was used to evaluate binding. […]

[1] = Intraperitoneal GalCer injection of normal mice, GalCer mass in kidney subcellular fractions (TLC); format: in vivo, mouse; conditions: intraperitoneal injection (α-GalCer), two days prior to sacrifice
Description: Mouse experiments. Six homozygous Cln3^Δex7/8 adult 60 day old mice and six age and sex-matched control mice were deeply anesthetized by xylazine/ketamine and sacrificed by cardiac perfusion of ice-cold phosphate-buffered saline (PBS, pH 7.4), followed by periodate-lysine-phosphate (PLP) fixative (2% paraformaldehyde, 0.01M sodium periodate and 0.1M lysine phosphate buffer, pH 7.4). Mouse brains were snap-frozen in liquid nitrogen. Three of the frozen brains from each group were used for subcellular fractionation and thin layer chromatography, and frozen sections were obtained for fluorescence immunocytochemistry from the rest. At the age of 60 days and two days prior to sacrifice, three of six control mice were injected with α-GalCer at a dose of […] or vehicle intraperitoneally. They were deeply anesthetized by xylazine/ketamine and sacrificed by cardiac perfusion of ice-cold phosphate-buffered saline (PBS, pH 7.4), followed by periodate-lysine-phosphate (PLP) fixative (2% paraformaldehyde, 0.01M sodium periodate and 0.1M lysine phosphate buffer, pH 7.4). […]
Thin Layer Chromatography for Quantification of Galactosylceramide. […] Lipid quantification was accomplished with ImageQuant™ program and normalized with respect to phosphate content.

CLN3 knockdown NT2 cells = test: Cell proliferation rate in CLN3 knockdown NT2 cells, Trypan blue dye exclusion; format: cell-based, human; conditions: GalCer 50 ng/ml, 3 days post-transfection
Protocol: Cell Culture and Cell Treatment. NT2 neuronal precursor cells (ATCC cat no. CRL 1973) were grown in DMEM supplemented with 1% sodium pyruvate, L-glutamine and antibiotics and incubated in 37 C and 5% CO2 for 3 days.
siRNA knockdown of CLN3 in NT2 cells. HS1 siRNA ([…]) for CLN3 knockdown was designed using BLOCK-iT RNA™ Designer (Invitrogen). […] siRNA and scrambled universal negative control siRNA oligonucleotides were transfected into wild type NT2 cells using Lipofectamine RNAiMax™ according to manufacturer's protocol. In brief, […] HS1 RNAi duplex or scrambled siRNA universal negative control were diluted in 50 μl DMEM medium without serum. Lipofectamine™ RNAiMAX was mixed gently before use, then 1 μl was diluted in 50 μl DMEM medium. The diluted RNAi duplexes were combined with the diluted Lipofectamine RNAiMAX and incubated for 10 minutes at room temperature. The RNAi duplex-Lipofectamine™ RNAiMAX complexes were added to cells for a final RNA concentration of 10 nM. […]
Determination of cell proliferation rate in CLN3 knockdown NT2 cells. 4×10^5 cells transfected with CLN3 siRNA or scrambled siRNA, and treated or not treated with 50 ng/ml GalCer, were seeded and counted with Trypan blue dye exclusion. […]
NT2 cell proliferation and apoptosis rates. An equal number of NT2 cells was initially seeded and cell number determined at different time points with Trypan blue dye exclusion. […]

Substance: galactosylceramide [GalCer]
- binding of mutant CLN3 to membrane spots impregnated with the lipid (mutant CLN3p): failed to do so
- kidney Golgi GalCer [1]: concomitant reduction in Golgi GalCer; also recorded: concomitant drop in Golgi GalCer
- kidney lipid raft (plasma membrane) GalCer [1]: increase GalCer at the plasma membrane; also recorded: increases kidney lipid raft GalCer
- growth of CLN3-deficient NT2 cells (CLN3 knockdown NT2 cells): normalized growth; also recorded: corrects growth
